Data on 17 molecules can be found in US20250215029A1 (Recludix Pharma, Inc., priority 2022, published 2025).

The target of test [1] is T1, Recombinant STAT6 protein (STAT6 (W123-T658)) (Homo sapiens, UniProt P42226).
T1 construct: Recombinant STAT6 protein (STAT6 (W123-T658))
T1 sequence (P42226 123-658): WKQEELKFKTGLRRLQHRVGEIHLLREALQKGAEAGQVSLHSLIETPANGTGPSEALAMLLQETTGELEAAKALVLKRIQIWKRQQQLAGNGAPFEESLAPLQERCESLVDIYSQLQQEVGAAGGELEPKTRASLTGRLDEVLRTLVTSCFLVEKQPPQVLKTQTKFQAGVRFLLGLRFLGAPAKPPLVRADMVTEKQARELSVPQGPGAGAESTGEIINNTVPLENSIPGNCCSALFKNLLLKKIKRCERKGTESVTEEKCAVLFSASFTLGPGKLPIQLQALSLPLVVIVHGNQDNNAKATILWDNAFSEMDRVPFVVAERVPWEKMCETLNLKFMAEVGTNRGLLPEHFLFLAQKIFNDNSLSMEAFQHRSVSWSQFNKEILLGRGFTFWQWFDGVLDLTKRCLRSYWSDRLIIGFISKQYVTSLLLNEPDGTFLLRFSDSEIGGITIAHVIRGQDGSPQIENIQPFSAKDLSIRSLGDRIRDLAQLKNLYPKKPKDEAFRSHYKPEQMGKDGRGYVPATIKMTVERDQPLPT
Description: STAT6 Fluorescence Polarization (FP) Assay. It counts as binding. The conditions noted are these: STAT6 (W123-T658) 250 nM, probe 5-FAM-Ap[…]-NH2 2 nM, 45-minute incubation; read-out: STAT6 (FP assay IC50 class). The gist of the method:
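Recombinant STAT6 (W123-T658) at 250 nM mixed with 2 nM 5-FAM phosphotyrosine peptide probe in HEPES pH 7.4 buffer with DTT, 1% DMSO final, added to serially diluted compounds. FP (mP) read after 45 min at room temperature; IC50 by nonlinear regression vs log concentration.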
On the technique in general: Fluorescence polarisation rises when a labelled molecule tumbles more slowly, as on binding a larger partner.

In test [2] the target is T2, Recombinant STAT3 protein (STAT3 (G127-I722)) (Homo sapiens, UniProt P40763).
T2 construct: Recombinant STAT3 protein (STAT3 (G127-I722))
Description: STAT3 Fluorescence Polarization (FP) Assay. It counts as binding. The note with it: STAT3 (G127-I722) 25 nM, probe 5-FAM-GpYLPQTV-NH2 2 nM, 45-minute incubation; read-out: STAT3 (FP assay IC50 class). The gist of the method: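 Displacement of a fluorescent phosphotyrosine peptide (5-FAM-GpYLPQTV-NH2, 2 nM) from 25 nM recombinant STAT3 G127-I722 was monitored by FP after 45 min at room temperature.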

T2 sequence (P40763 127-722): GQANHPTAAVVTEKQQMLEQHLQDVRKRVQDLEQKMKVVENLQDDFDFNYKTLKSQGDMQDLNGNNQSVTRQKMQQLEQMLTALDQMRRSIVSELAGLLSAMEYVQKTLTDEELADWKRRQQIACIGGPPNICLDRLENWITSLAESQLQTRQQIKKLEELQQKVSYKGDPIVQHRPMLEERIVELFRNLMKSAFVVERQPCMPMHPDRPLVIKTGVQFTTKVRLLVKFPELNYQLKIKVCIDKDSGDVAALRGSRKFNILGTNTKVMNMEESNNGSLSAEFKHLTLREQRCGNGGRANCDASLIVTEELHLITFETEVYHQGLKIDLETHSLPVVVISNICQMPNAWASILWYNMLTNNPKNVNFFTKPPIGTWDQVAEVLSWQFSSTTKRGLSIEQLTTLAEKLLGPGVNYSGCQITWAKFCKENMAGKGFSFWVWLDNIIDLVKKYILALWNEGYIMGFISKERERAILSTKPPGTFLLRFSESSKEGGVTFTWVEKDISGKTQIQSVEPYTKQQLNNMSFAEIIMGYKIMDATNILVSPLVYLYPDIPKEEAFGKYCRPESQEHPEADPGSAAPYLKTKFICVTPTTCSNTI

Consider `CC(F)(c1ccc2sc(C(=O)N[C@H]3CCC[C@H]4CC[C@@H](C(=O)N5CC(c6cccnc6)C5)N4C3=O)cc2c1)P(=O)(O)O` (stereo partly drawn) [Compound 221, (1-fluoro-1-(2-(((3S,6S,9aS)-5-oxo-3-(3-(pyridin-3-yl)azetidine-1-carbonyl)octahydro-1H-pyrrolo[1,2-a]azepin-6-yl)carbamoyl)benzo[b]thiophen-5-yl)ethyl)phosphonic acid], for which the IC50 (as a rule, the concentration at which inhibition is half-maximal) is 3000 to 30000 nM in test [1] and less than 100 nM in test [2].

Consider `CC(F)(c1ccc2sc(C(=O)N[C@H]3CCCC[C@H]4CC[C@@H](C(=O)N5CCC(c6cccnc6)C5)N4C3=O)cc2c1)P(=O)(O)O` (stereo partly drawn) [Compound 222, (1-fluoro-1-(2-(((3S,6S,10aS)-5-oxo-3-(3-(pyridin-3-yl)pyrrolidine-1-carbonyl)decahydropyrrolo[1,2-a]azocin-6-yl)carbamoyl)benzo[b]thiophen-5-yl)ethyl)phosphonic acid], for which the values for the IC50 in test [1] and in test [2] were 300 to 3000 nM and 100 to 1000 nM, respectively.

Consider `O=C(N[C@H]1CCCC[C@H]2CC[C@@H](C(=O)N3CCC(c4cccnc4)C3)N2C1=O)c1cc2cc(C(F)P(=O)(O)O)ccc2s1` (stereo partly drawn) [Compound 223, (fluoro(2-(((3S,6S,10aS)-5-oxo-3-(3-(pyridin-3-yl)pyrrolidine-1-carbonyl)decahydropyrrolo[1,2-a]azocin-6-yl)carbamoyl)benzo[b]thiophen-5-yl)methyl)phosphonic acid], for which the IC50 in test [1] lay in the range of 300 to 3000 nM; in test [2], 100 to 1000 nM.

As to `O=C(N[C@@H]1C(=O)N2[C@@H](CCC[C@H]1C1CC1)CC[C@H]2C(=O)N1CC(c2cccnc2)C1)c1cc2cc(C(F)(F)P(=O)(O)O)ccc2s1` [Compound 233, ((2-(((3S,6S,7S,10aS)-7-cyclopropyl-5-oxo-3-(3-(pyridin-3-yl)azetidine-1-carbonyl)decahydropyrrolo[1,2-a]azocin-6-yl)carbamoyl)benzo[b]thiophen-5-yl)difluoromethyl)phosphonic acid], the IC50 in test [1] was 3000 to 30000 nM; in test [2], less than 100 nM.

As for `COc1ccncc1C1CN(C(=O)[C@@H]2CC[C@@H]3CCCC[C@H](NC(=O)c4cc5cc(C(F)P(=O)(O)O)ccc5s4)C(=O)N32)C1` (stereo partly drawn) [Compound 236, (fluoro(2-(((3S,6S,10aS)-3-(3-(4-methoxypyridin-3-yl)azetidine-1-carbonyl)-5-oxodecahydropyrrolo[1,2-a]azocin-6-yl)carbamoyl)benzo[b]thiophen-5-yl)methyl)phosphonic acid], the IC50 was 3000 to 30000 nM in test [1] and less than 100 nM in test [2].

On to `CCC[C@@H]1CC[C@H](NC(=O)c2cc3cc(C(F)P(=O)(O)O)ccc3s2)C(=O)N2[C@H](CC[C@H]2C(=O)N2CC(c3cnccc3OC)C2)C1` (stereo partly drawn) [Compound 241, (fluoro(2-(((3S,6S,9R,10aR)-3-(3-(4-methoxypyridin-3-yl)azetidine-1-carbonyl)-5-oxo-9-propyldecahydropyrrolo[1,2-a]azocin-6-yl)carbamoyl)benzo[b]thiophen-5-yl)methyl)phosphonic acid], for which the IC50 in test [1] was 3000 to 30000 nM; in test [2], less than 100 nM.

As to `O=C(N[C@H]1CCCC[C@H]2CC[C@@H](C(=O)N3C[C@@H](c4cccnc4)CC34CC4)N2C1=O)c1cc2cc(CP(=O)(O)O)ccc2s1` [Compound 244, ((2-(((3S,6S,10aS)-5-ox0-3-((R)-6-(pyridin-3-yl)-4-azaspiro[2.4]heptane-4-carbonyl)decahydropyrrolo[1,2-a]azocin-6-yl)carbamoyl)benzo[b]thiophen-5-yl)methyl)phosphonic acid], the IC50 lay within 300 to 3000 nM in test [1] and 1000 to 10000 nM in test [2].

In the case of `CC[C@H]1CC[C@H](NC(=O)c2cc3cc(C(F)P(=O)(O)O)ccc3s2)C(=O)N2[C@H](CC[C@H]2C(=O)N2CC(c3cnccc3OC)C2)C1` (stereo partly drawn) [Compound 245, ((2-(((3S,6S,9S,10aR)-9-ethyl-3-(3-(4-methoxypyridin-3-yl)azetidine-1-carbonyl)-5-oxodecahydropyrrolo[1,2-a]azocin-6-yl)carbamoyl)benzo[b]thiophen-5-yl)fluoromethyl)phosphonic acid], the IC50 in test [1] is 3000 to 30000 nM; in test [2] it was less than 100 nM.

Take `COc1ccncc1C1CN(C(=O)[C@@H]2CC[C@@H]3C[C@@H](C(C)C)CC[C@H](NC(=O)c4cc5cc(C(F)P(=O)(O)O)ccc5s4)C(=O)N32)C1` (stereo partly drawn) [Compound 246, (fluoro(2-(((3S,6S,9S,10aR)-9-isopropyl-3-(3-(4-methoxypyridin-3-yl)azetidine-1-carbonyl)-5-oxodecahydropyrrolo[1,2-a]azocin-6-yl)carbamoyl)benzo[b]thiophen-5-yl)methyl)phosphonic acid]: the IC50 in test [1] is 3000 to 30000 nM; in test [2] it was less than 100 nM.

For `CCC[C@H]1CC[C@H](NC(=O)c2cc3cc(C(F)P(=O)(O)O)ccc3s2)C(=O)N2[C@H](CC[C@H]2C(=O)N2CC(c3cnccc3OC)C2)C1` (stereo partly drawn) [Compound 247, (fluoro(2-(((3S,6S,9S,10aR)-3-(3-(4-methoxypyridin-3-yl)azetidine-1-carbonyl)-5-oxo-9-propyldecahydropyrrolo[1,2-a]azocin-6-yl)carbamoyl)benzo[b]thiophen-5-yl)methyl)phosphonic acid], the IC50 is 3000 to 30000 nM in test [1] and less than 100 nM in test [2].

Consider `CC(O)C1(c2ccccc2)CN(C(=O)[C@@H]2CC[C@@H]3CCCC[C@H](NC(=O)c4cc5cc(C(F)(F)P(=O)(O)O)ccc5s4)C(=O)N32)C1` (stereo partly drawn) [Compound 495, (difluoro(2-(((3S,6S,10aS)-3-(3-(1-hydroxyethyl)-3-phenylazetidine-1-carbonyl)-5-oxodecahydropyrrolo[1,2-a]azocin-6-yl)carbamoyl)benzo[b]thiophen-5-yl)methyl)phosphonic acid], for which the concentration for half-maximal inhibition (IC50) in test [1] lay in the range of 3000 to 30000 nM; in test [2] it was 100 to 1000 nM.

For the molecule `Cc1cc(C#N)cnc1C1CN(C(=O)[C@@H]2CC[C@@H]3CCCC[C@H](NC(=O)c4cc5cc(C(F)(F)P(=O)(O)O)ccc5s4)C(=O)N32)C1` [Compound 496, ((2-(((3S,6S,10aS)-3-(3-(5-cyano-3-methylpyridin-2-yl)azetidine-1-carbonyl)-5-oxodecahydropyrrolo[1,2-a]azocin-6-yl)carbamoyl)benzo[b]thiophen-5-yl)difluoromethyl)phosphonic acid], the figures for the IC50 in test [1] and in test [2] were 300 to 3000 nM and less than 100 nM, respectively.

As for `O=C(N[C@H]1CCCC[C@H]2CC[C@@H](C(=O)N3CC(c4nc5ccccc5o4)C3)N2C1=O)c1cc2cc(C(F)(F)P(=O)(O)O)ccc2s1` [Compound 497, ((2-(((3S,6S,10aS)-3-(3-(benzo[d]oxazol-2-yl)azetidine-1-carbonyl)-5-oxodecahydropyrrolo[1,2-a]azocin-6-yl)carbamoyl)benzo[b]thiophen-5-yl)difluoromethyl)phosphonic acid], the IC50 in test [1] is 300 to 3000 nM; in test [2], 100 to 1000 nM.

Consider `COC1(c2cccnc2)CN(C(=O)[C@@H]2CC[C@@H]3CCC[C@H](NC(=O)c4cc5cc(C(F)(F)P(=O)(O)O)ccc5s4)C(=O)N32)C1` [Compound 498, (difluoro(2-(((3S,6S,9aS)-3-(3-methoxy-3-(pyridin-3-yl)azetidine-1-carbonyl)-5-oxooctahydro-1H-pyrrolo[1,2-a]azepin-6-yl)carbamoyl)benzo[b]thiophen-5-yl)methyl)phosphonic acid], for which the IC50 in test [1] was 300 to 3000 nM; in test [2] it was less than 100 nM.

Regarding `Cc1ccncc1C1CN(C(=O)[C@@H]2CC[C@@H]3CCCC[C@H](NC(=O)c4cc5cc(C(F)(F)P(=O)(O)O)ccc5s4)C(=O)N32)C1` [Compound 499, (difluoro(2-(((3S,6S,10aS)-3-(3-(4-methylpyridin-3-yl)azetidine-1-carbonyl)-5-oxodecahydropyrrolo[1,2-a]azocin-6-yl)carbamoyl)benzo[b]thiophen-5-yl)methyl)phosphonic acid], the IC50 is 300 to 3000 nM in test [1] and less than 100 nM in test [2].

With `Cc1ccncc1C1CN(C(=O)[C@@H]2CC[C@@H]3CC(C)C[C@H](NC(=O)c4cc5cc(CP(=O)(O)O)ccc5s4)C(=O)N32)C1` (stereo partly drawn) [Compound 500, ((2-(((3S,6S,9aR)-8-methyl-3-(3-(4-methylpyridin-3-yl)azetidine-1-carbonyl)-5-oxooctahydro-1H-pyrrolo[1,2-a]azepin-6-yl)carbamoyl)benzo[b]thiophen-5-yl)methyl)phosphonic acid], the figures for the IC50 in test [1] and in test [2] were 3000 to 30000 nM and 100 to 1000 nM, respectively.

On to `COC1(c2cnccc2C)CN(C(=O)[C@@H]2CC[C@@H]3CCCC[C@H](NC(=O)c4cc5cc(C(F)(F)P(=O)(O)O)ccc5s4)C(=O)N32)C1` [Compound 501, (difluoro(2-(((3S,6S,10aS)-3-(3-methoxy-3-(4-methylpyridin-3-yl)azetidine-1-carbonyl)-5-oxodecahydropyrrolo[1,2-a]azocin-6-yl)carbamoyl)benzo[b]thiophen-5-yl)methyl)phosphonic acid], for which the IC50 in test [1] is 3000 to 30000 nM; in test [2] it was 100 to 1000 nM.
